Measured values from patent publication US20080249092A1, “Novel Quinoline Compounds Capable Of Binding At The Cb2 Receptor” (priority 2006, published 2008).
Structures can show the parent of a compound that is named as a salt.

target: T1, human cannabinoid CB2 receptor (Homo sapiens, UniProt P34972); experiment: Cannabinoid CB2 receptor agonist activity in yeast cells (FDGlu fluorescence); assay type: cell-based; details: not given
T1 construct: expressed in transfected cells; host or cells: Saccharomyces cerevisiae strain MMY23 (cassette integrated at the ura3 locus, GPD promoter)
Experimental: The cannabinoid CB2 receptor agonist activity of compounds of formula (I) was determined in accordance with the following experimental method.
Yeast (Saccharomyces cerevisiae) cells expressing the human cannabinoid CB2 receptor were generated by integration of an expression cassette into the ura3 chromosomal locus of yeast strain MMY23. This cassette consisted of DNA sequence encoding the human CB2 receptor flanked by the yeast GPD promoter to the 5′ end of CB2 and a yeast transcriptional terminator sequence to the 3′ end of CB2. MMY23 expresses a yeast/mammalian chimeric G-protein alpha subunit in which the C-terminal 5 amino acids of Gpa1 are replaced with the C-terminal 5 amino acids of human Gαi1/23 (as described in Brown et al. (2000), Yeast 16:11-22). Cells were grown at 30° C. in liquid Synthetic Complete (SC) yeast media (Guthrie and Fink (1991), Methods in Enzymology, Vol. 194) lacking uracil, tryptophan, adenine and leucine to late logarithmic phase (approximately 6 OD600/ml).
Agonists were prepared as 10 mM solutions in DMSO. EC50 values (the concentration required to produce 50% maximal response) were estimated using 4 fold dilutions of between 3- and 5-fold (BiomekFX, Beckman) into DMSO. Agonist solutions in DMSO (1% final assay volume) were transferred into black microtitre plates from NUNC Greiner (384-well). Cells were suspended at a density of 0.2 OD600/ml in SC media lacking histidine, uracil, tryptophan, adenine and leucine and supplemented with 10 mM 3-aminotriazole, 0.1 M sodium phosphate pH 7.0, and 120 μM fluorescein di-β-D-glucopyranoside (FDGlu). This mixture (50 ul per well) was added to agonist in the assay plates (Multidrop 384, Labsystems). After incubation at 30° C. for 24 hours, fluorescence resulting from degradation of FDGlu to fluorescein due to exoglucanase, an endogenous yeast enzyme produced during agonist-stimulated cell growth, was determined using a fluorescence microtitre plate reader (Tecan Spectrofluor or LJL Analyst excitation wavelength: 485 nm; emission wavelength: 535 nm). Fluorescence was plotted against compound concentration and iteratively curve fitted using a four parameter fit to generate a concentration effect value.
Efficacy (Emax) was calculated from the equation
Emax=Max[compound X]−Min[compound X]/Max[HU210]−Min[HU210]×100%
where Max[compound X] and Min[compound X] are the fitted maximum and minimum respectively from the concentration effect curve for compound X, and Max[HU210] and Min[HU210] are the fitted maximum and minimum respectively from the concentration effect curve for (6aR, 10aR)-3-(1,1′-Dimethylheptyl)-6a,7,10,10a-tetrahydro-1-hydroxy-6,6-dimethyl-6H-dibenzo[b,d]pyran-9-methanol (HU210; available from Tocris). Equieffective molar ratio (EMR) values were calculated from the equation
Where EC50 [compound X] is the EC50 of compound X and EC50 [HU210] is the EC50 of HU210.
pEC50 is the negative log of the EC50.

T1 sequence (P34972 whole entry): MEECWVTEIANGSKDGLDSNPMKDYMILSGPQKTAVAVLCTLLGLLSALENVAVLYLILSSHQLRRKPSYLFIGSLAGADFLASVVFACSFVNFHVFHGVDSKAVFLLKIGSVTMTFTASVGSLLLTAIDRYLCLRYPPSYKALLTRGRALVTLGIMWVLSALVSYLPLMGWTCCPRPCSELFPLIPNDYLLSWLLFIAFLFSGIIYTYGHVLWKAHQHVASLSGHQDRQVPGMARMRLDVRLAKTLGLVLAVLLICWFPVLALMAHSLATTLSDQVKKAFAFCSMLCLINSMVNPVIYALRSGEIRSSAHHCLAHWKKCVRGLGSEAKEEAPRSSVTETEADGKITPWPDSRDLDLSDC

SMILES | EC50
O=S(=O)(c1ccc(Cl)cc1)c1cnc2c(NCC3CCOCC3)cccc2c1 [Example E3, 3-[(4-Chlorophenyl)sulfonyl]-N-(tetrahydro-2H-pyran-4-ylmethyl)-8-quinolinamine] | < 1000 nM

same assay, conditions: agonist activity; Saccharomyces cerevisiae cells expressing the human CB2 receptor; 24 hours at 30° C.; read-out: pEC50 at the CB2 receptor (converted)

SMILES | EC50
O=S(=O)(c1ccccc1)c1cnc2c(NCc3cccnc3)cccc2c1 [Example E4, 3-(Phenylsulfonyl)-N-(3-pyridinylmethyl)-8-quinolinamine] | < 1000 nM
O=S(=O)(c1ccccc1)c1cnc2c(NCCC3CCOCC3)cccc2c1 [Example E6, 3-(Phenylsulfonyl)-N-[2-(tetrahydro-2H-pyran-4-yl)ethyl]-8-quinolinamine hydrochloride] | < 1000 nM
O=S(=O)(c1ccccc1)c1cnc2c(NCCN3CCOCC3)cccc2c1 [Example E2, N-[2-(4-Morpholinyl)ethyl]-3-(phenylsulfonyl)-8-quinolinamine hydrochloride] | < 10000 nM
O=S(=O)(c1ccccc1)c1cnc2c(NCCc3ccncc3)cccc2c1 [Example E5, 3-(Phenylsulfonyl)-N-[2-(4-pyridinyl)ethyl]-8-quinolinamine hydrochloride] | < 1000 nM

More lines, now with the values ahead:

EC50 | SMILES
< 1000 nM | Cc1cc(CCNc2cccc3cc(S(=O)(=O)c4ccccc4)cnc23)ccn1 [Example E7, N-[2-(2-methyl-4-pyridinyl)ethyl]-3-(phenylsulfonyl)-8-quinolinamine hydrochloride]
< 1000 nM | O=S(=O)(c1ccccc1)c1cnc2c(NCC3CCOCC3)cccc2c1 [Example E1, 3-(Phenylsulfonyl)-N-(tetrahydro-2H-pyran-4-ylmethyl)-8-quinolinamine]
